In patent US6713506B2, “Tea polyphenol esters and analogs thereof for cancer prevention and treatment” (University of South Florida, priority 2000, dated 2004):

Tests used:
[1] = molecular target: T1, trypsin-like activity in living Jurkat T cells (Homo sapiens, UniProt Q99436); assay: Proteasome trypsin-like activity in living Jurkat T cells; type: cell-based
T1 construct: endogenous in cells; host or cells: Jurkat T cells (whole cell extract or intact cells)
Method: Inhibition of the proteasome activity in living cells by tea polyphenols—To measure inhibition of the chymotrypsin-like activity in living tumor cells, Jurkat T (1×10^5 cells/ml/well), MCF7 or PC-3 cells (1×10^4 cells/ml/well) are cultured in 24-well plates. These cells are first incubated for 12 h with various concentrations of EGCG, EGC, β-lactone or LLnL, followed by an additional 2 h-incubation with fluorogenic peptide substrates, Suc-Leu-Leu-Val-Tyr-AMC for the chymotrypsin-like activity and Z-Gly-Gly-Arg-AMC for the trypsin-like activity. After that, cell medium (200 μl per sample) is collected and used for measurement of free AMCs.

[2] = molecular target: T2, proteasomal trypsin-like activity in Jurkat T cell extract (Homo sapiens, UniProt Q99436); assay: Proteasome trypsin-like activity in Jurkat T cell free extract; type: biochemical; conditions: EGCG 10 μM
T2 construct: endogenous in cells; host or cells: Jurkat T cells (whole cell extract or intact cells)
Method: Inhibition of the proteasome activity with cell free extracts by tea polyphenols—The whole cell extract (3.5 μg) from Jurkat T cells is incubated for 90 min at 37° C. with 20 μM of a fluorogenic peptide substrate, Suc-Leu-Leu-Val-Tyr-AMC (for the chymotrypsin-like activity), Z-Leu-Leu-Glu-AMC [peptidyl-glutamyl peptide-hydrolyzing (PGPH) activity; Calbiochem], and Z-Gly-Gly-Arg-AMC (for the trypsin-like activity; Bachem), in 100 μl of the assay buffer with or without 10 μM EGCG or EGC. The hydrolyzed AMCs are quantified as described above.

[3] = tested on: LNCaP prostate cancer cells; assay: Cell cycle analysis by flow cytometry, LNCaP cells; type: cell-based, human; conditions: 10 μM, 36 h
Method: FIG. 6. Cell cycle analysis. Asynchronous Jurkat, LNCaP, WI-38, and VA-13 cells are treated with 10 μM EGCG and harvested at the time points indicated. Cells are prepared and analyzed by flow cytometry as described in the The Materials and Methods section of Example 1. Growth arrest is determined by the increase in the percentage of G1 population.
Cell cycle analysis—Cell cycle analysis based on DNA content is performed as follows. Cells are harvested, counted and washed twice with PBS. Cells (5×10^6 ) are then suspended in 0.5 ml PBS, pipetted and fixed in 5 ml of 70% ethanol for at least 2 h at −20° C. Cells are centrifuged, resuspended in 1 ml of propidium iodide staining solution (50 μg propidium iodide, 100 units RNase A and 1 mg glucose per ml PBS) and incubated at room temperature for 30 min. The cells are then analyzed with FACScan (Becton Dickinson Immunocytometry, CA.), ModFit LT and WinMDI V.2.8 cell cycle analysis software (Verity Software, Topsham, Me.). The cell cycle distribution is shown as the percentage of cells containing G1, S, G2, and M DNA judged by propidium iodide staining.

O=C(O[C@@H]1Cc2c(O)cc(O)cc2O[C@@H]1c1cc(O)c(O)c(O)c1)c1cc(O)c(O)c(O)c1 [EGCG, (−)-epigallocatechin-3-gallate]
inhibition of trypsin-like activity in living Jurkat T cells (in words) [1]: does not significantly inhibit | effect on proteasomal trypsin-like activity (in words) [2]: does not affect | increase in G1 population [3]: ~25%
